The test system of one series is Streptococcus pneumoniae. Nature of the series: Antibacterial activity against Streptococcus pneumoniae D39 after 20 hrs by CLSI-based microdilution method. The class given is functional. The conditions noted are these: D39, 20 h.
Series [1] in a line: Cytotoxicity against human HepG2 cells assessed as reduction in cell viability after 48 hrs by Alamar Blue assay. The class given is cell-based. A general note: Resazurin is reduced to fluorescent resorufin, in cell work by metabolically active cells.
The nature of series [2]: Drug level in ICR mouse liver microsomes treated with 6-Cyclobutoxy-(R)-4-[((1S,2S,4S,5Z)-5-ethylidene-1-azabicyclo-[2.2.2]octan-2-yl)hydroxymethyl]quinoline at 10 uM preincubated with NADPH for 10 mins and measured after 90 mins by LC-MS/MS analysis. The class given is ADME, Microsome. The following applies: 1.5 h. (In general: Liver microsomes are a subcellular fraction often used to study metabolism.)

Series [3] is described as follows: Drug level in ICR mouse liver microsomes treated with 6-Cyclobutoxy-(R)-4-[((1S,2S,4S,5E)-5-ethylidene-1-azabicyclo[2.2.2]octan-2-yl)hydroxymethyl]quinoline at 10 uM preincubated with NADPH for 10 mins and measured after 90 mins by LC-MS/MS analysis. The series is classed as ADME, Microsome. The following applies: 1.5 h.

Experimental findings from ChEMBL document CHEMBL4400546, “A Cinchona Alkaloid Antibiotic That Appears To Target ATP Synthase in Streptococcus pneumoniae” (J Med Chem, 2019) are described below.

Broadly, the MIC is the smallest concentration in the dilution series that meets the test's criterion for growth inhibition. What is called CC50 is the concentration at which the toxic effect on the cells reaches its halfway point. Consider `C=CCOc1ccc2nccc([C@@H](O)[C@@H]3C[C@@H]4CC[N@@]3CC4=CC)c2c1`, for which the minimal inhibitory concentration (MIC) against Streptococcus pneumoniae stood at 4 µM. Further, the 50% cytotoxic concentration (CC50) at 48 h in series [1] stood at 54 µM. For `CC=C1C[N@]2CC[C@H]1C[C@H]2[C@H](O)c1ccnc2ccc(OC(C)CO)cc12` (mixture of isomers) the same measures were 5 µM and over 100 µM. Regarding `CC=C1C[N@]2CC[C@H]1C[C@H]2[C@H](O)c1ccnc2ccc(OC(C)C)cc12`, it took 1 µM to inhibit growth with Streptococcus pneumoniae (MIC). Besides, the half-maximal cytotoxic concentration (CC50) at 48 h in series [1] came out at 54 µM.

Turning to `CC=C1C[N@]2CC[C@H]1C[C@H]2[C@H](O)c1ccnc2ccc(OC)cc12`, the lowest concentration to inhibit growth in the series with Streptococcus pneumoniae (MIC) was 12 µM. Further, the CC50 at 48 h in series [1] is over 100 µM. As for `C/C=C1\C[N@]2CC[C@H]1C[C@H]2[C@H](O)c1ccnc2ccc(O[C@H]3O[C@H](C(=O)O)[C@@H](O)[C@H](O)[C@H]3O)cc12`, the Drug uptake entry in series [2] and in series [3] was “Active” throughout.

`CC[C@H]1C[N@]2CC[C@H]1C[C@@H]2[C@H](F)c1ccnc2ccc(OC)cc12`: in the series with Streptococcus pneumoniae, the minimum inhibitory concentration (MIC) was over 390 µM. In series [1], the CC50 at 48 h is over 100 µM.

Regarding `C/C=C1\CN2CC[C@H]1C[C@H]2[C@H](O)c1ccnc2ccc(O)cc12`, the Drug uptake result in series [2] and in series [3] was “Active” throughout. Take `CC[C@H]1C[N@]2CC[C@H]1C[C@H]2[C@H](O)c1ccnc2ccc(OCC(F)(F)F)cc12`: the MIC in the series with Streptococcus pneumoniae was 10 µM. In addition, the CC50 at 48 h in series [1] came out at 72 µM.

With `COC(=O)CCCON=C1C[N@]2CC[C@H]1C[C@H]2[C@H](O)c1ccnc2ccc(OC)cc12`, the minimum inhibitory concentration (MIC) against Streptococcus pneumoniae is 299 µM. In addition, in series [1], the 50% cytotoxic concentration (CC50) at 48 h is over 100 µM. As for `OC/C=C1\C[N@]2CC[C@H]1C[C@H]2[C@H](O)c1ccnc2ccc(OC3CCC3)cc12`, the Drug uptake entry in series [2] and in series [3] was “Active” throughout. Take `C/C=C1\C[N@]2CC[C@H]1C[C@H]2C(=O)c1ccnc2ccc(O)cc12`: the Drug uptake result in series [2] and in series [3] was “Active” throughout. In the series with Streptococcus pneumoniae, `CC=C1C[N@]2CC[C@H]1C[C@H]2[C@H](O)c1ccnc2ccc(OCC3CC3)cc12` came in with an MIC of 5 µM. For the same compound, the CC50 at 48 h in series [1] was over 100 µM. For `C=CCOc1ccc2nccc([C@@H](O)[C@@H]3C[C@@H]4CC[N@@]3C[C@@H]4CC)c2c1` the same measures were 11 to 22 µM and 78 µM.

Compound `CC=C1C[N@]2CC[C@H]1C[C@H]2[C@H](O)c1ccnc2ccc(OCC(F)(F)F)cc12` had an MIC against Streptococcus pneumoniae of 5 µM. The CC50 at 48 h in series [1] was over 100 µM. As to `COc1ccc2nccc([C@@H](O)[C@@H]3C[C@@H]4CC[N@@]3C[C@@H]4[C@H](O)CO)c2c1`, the MIC in the series with Streptococcus pneumoniae was over 357 µM. Moreover, in series [1], the half-maximal cytotoxic concentration (CC50) at 48 h was over 100 µM. In the case of `CC=C1C[N@]2CC[C@H]1C[C@@H]2[C@@H](O)c1ccnc2ccc(OC)cc12`, the MIC in the series on Streptococcus pneumoniae is over 395 µM. Moreover, the CC50 at 48 h in series [1] was over 100 µM. On to `C=C[C@H]1C[N@@]2CC[C@H]1C[C@H]2[C@H](O)c1ccnc2ccc(OC)cc12` [QUININE], for which the half-maximal cytotoxic concentration (CC50) at 48 h in series [1] is over 100 µM. Compound `CC[C@H]1C[N@]2CC[C@H]1C[C@H]2[C@H](O)c1ccnc2ccc(OC(C)C)cc12` yielded an MIC in the series on Streptococcus pneumoniae of 11 µM. Besides, the 50% cytotoxic concentration (CC50) at 48 h in series [1] amounted to 86 µM.

In the series with Streptococcus pneumoniae, `CC=C1C[N@]2CC[C@H]1C[C@H]2[C@@H](F)c1ccnc2ccc(OC)cc12` registered a minimal inhibitory concentration (MIC) of over 392 µM. Also, the cytotoxic concentration (CC50) at 48 h in series [1] is over 100 µM. Compound `CC[C@H]1C[N@]2CC[C@H]1C[C@H]2[C@H](O)c1ccnc2ccc(OCC3CC3)cc12` had a minimum inhibitory concentration (MIC) against Streptococcus pneumoniae of 22 µM. Also, the CC50 at 48 h in series [1] was 87 µM. In the series with Streptococcus pneumoniae, `CC[C@H]1C[N@]2CC[C@H]1C[C@H]2[C@H](O)c1ccnc2ccc(OC3CCC3)cc12` had a minimum inhibitory concentration (MIC) of 5 µM. For the same compound, the half-maximal cytotoxic concentration (CC50) at 48 h in series [1] was 51 µM. For `CC[C@H]1CN2CC[C@H]1C[C@H]2[C@H](O)c1ccnc2ccc(OC)cc12` [HYDROQUININE] the same measures were 98 µM and over 100 µM. For `CCON=C1C[N@]2CC[C@H]1C[C@H]2[C@H](O)c1ccnc2ccc(OC)cc12` the same measures were 360 µM and over 100 µM. In the series with Streptococcus pneumoniae, `CC=C1C[N@]2CC[C@H]1C[C@H]2[C@H](O)c1ccnc2ccc(OCC)cc12` showed a minimal inhibitory concentration (MIC) of 1 µM. Further, the cytotoxic concentration (CC50) at 48 h in series [1] is over 100 µM.

For `CC=C1C[N@]2CC[C@H]1C[C@H]2[C@H](O)c1ccnc2ccc(OCCC)cc12`, in the series on Streptococcus pneumoniae, the minimum inhibitory concentration (MIC) was 3 to 6 µM. Moreover, the CC50 at 48 h in series [1] was found to be 51 µM. The compound `CC=C1C[N@]2CC[C@H]1C[C@@H]2[C@H](F)c1ccnc2ccc(OC)cc12` showed an MIC in the series with Streptococcus pneumoniae of 392 µM. The cytotoxic concentration (CC50) at 48 h in series [1] is over 100 µM. In the same order, the values of `COc1ccc2nccc([C@@H](O)[C@@H]3C[C@@H]4CC[N@@]3CC4=NOC3CCC3)c2c1` are 84 µM and over 100 µM.

In the series on Streptococcus pneumoniae, `CC=CC1C[N@]2CC[C@H]1C[C@H]2[C@H](O)c1ccnc2ccc(OC)cc12` (stereo partly drawn) showed an MIC of 12 µM. Moreover, the CC50 at 48 h in series [1] was over 100 µM.

`CC=C1C[N@]2CC[C@H]1C[C@H]2[C@H](O)c1ccnc2ccc(OCCCC)cc12` registered a minimum inhibitory concentration (MIC) in the series with Streptococcus pneumoniae of 11 µM. The CC50 at 48 h in series [1] amounted to 27 µM. For `CC=C1C[N@]2CC[C@H]1C[C@H]2[C@H](O)c1ccnc2ccc(OC3CCCC3)cc12` the same measures were 5 µM and 48 µM. For `O=c1cc([C@@H](O)[C@@H]2C[C@@H]3CC[N@@]2C/C3=C\CO)c2cc(OC3CCC3)ccc2[nH]1`, the Drug uptake entry in series [2] and in series [3] was “Active” throughout. As to `CCCO/N=C1/C[N@]2CC[C@H]1C[C@H]2[C@H](O)c1ccnc2ccc(OC)cc12`, the minimum inhibitory concentration (MIC) with Streptococcus pneumoniae stood at 86 µM. Moreover, the CC50 at 48 h in series [1] is over 100 µM.

`COc1ccc2nccc([C@@H](O)[C@@H]3C[C@@H]4CC[N@@]3C/C4=N/OCC3CC3)c2c1` displayed a minimum inhibitory concentration (MIC) in the series on Streptococcus pneumoniae of 42 to 84 µM. For the same compound, the CC50 at 48 h in series [1] was over 100 µM. In the same order, the values of `CCOC(=O)CCCON=C1C[N@]2CC[C@H]1C[C@H]2[C@H](O)c1ccnc2ccc(OC)cc12` are 299 µM and over 100 µM.

On to `O=C(c1ccnc2ccc(OC3CCC3)cc12)[C@@H]1C[C@@H]2CC[N@@]1C/C2=C\CO`, for which the Drug uptake result in series [2] and in series [3] was “Active” each time. In turn, `CON=C1C[N@]2CC[C@H]1C[C@H]2[C@H](O)c1ccnc2ccc(OC)cc12` displayed an MIC in the series on Streptococcus pneumoniae of 375 to 750 µM. Moreover, the CC50 at 48 h in series [1] was over 100 µM.

As to `C#CCON=C1C[N@]2CC[C@H]1C[C@H]2[C@H](O)c1ccnc2ccc(OC)cc12`, 175 µM was the least that counted as inhibitory against Streptococcus pneumoniae (MIC). In series [1], the CC50 at 48 h was over 100 µM. As to `C=CCON=C1C[N@]2CC[C@H]1C[C@H]2[C@H](O)c1ccnc2ccc(OC)cc12`, the MIC against Streptococcus pneumoniae was found to be 174 µM. In series [1], the CC50 at 48 h was 51 µM. For `COc1ccc2nccc([C@@H](O)[C@@H]3C[C@@H]4CC[N@@]3C/C4=N/O)c2c1` the same measures were over 391 µM and over 100 µM. In the same order, the values of `CC=C1C[N@]2CC[C@H]1C[C@H]2[C@H](O)c1ccnc2ccc(OCc3ccccc3)cc12` are 40 µM and 47 µM. For `COc1ccc2nccc([C@@H](O)[C@@H]3C[C@@H]4CC[N@@]3CC4=NOCC(F)(F)F)c2c1` the same measures were over 313 µM and over 100 µM. Compound `COc1ccc2nccc([C@@H](O)[C@@H]3C[C@@H]4CC[N@@]3C/C4=N/OC3CCCC3)c2c1` returned a minimal inhibitory concentration (MIC) against Streptococcus pneumoniae of 40 to 81 µM. The cytotoxic concentration (CC50) at 48 h in series [1] was over 100 µM.

As to `CCCCON=C1C[N@]2CC[C@H]1C[C@H]2[C@H](O)c1ccnc2ccc(OC)cc12`, the minimum inhibitory concentration (MIC) against Streptococcus pneumoniae lay in the range of 21 to 42 µM. Moreover, the CC50 at 48 h in series [1] is over 100 µM.

In the case of `CC[C@H]1CN2CC[C@H]1C[C@H]2[C@H](O)c1ccnc2ccc(O)cc12`, 204 µM was the least that counted as inhibitory in the series on Streptococcus pneumoniae (MIC). For the same compound, the CC50 at 48 h in series [1] is over 100 µM. In the series with Streptococcus pneumoniae, `CCCOc1ccc2nccc([C@@H](O)[C@@H]3C[C@@H]4CC[N@@]3C[C@@H]4CC)c2c1` came in with an MIC of 11 µM. Moreover, in series [1], the cytotoxic concentration (CC50) at 48 h was 57 µM. In the same order, the values of `CC[C@H]1C[N@]2CC[C@H]1C[C@H]2[C@H](O)c1ccnc2ccc(OC3CCCC3)cc12` are 5 µM and over 100 µM.

The compound `CC[C@H]1C[N@]2CC[C@H]1C[C@H]2[C@H](O)c1ccnc2ccc(OCc3ccccc3)cc12` showed a minimum inhibitory concentration (MIC) against Streptococcus pneumoniae of 16 to 32 µg/mL. Moreover, in series [1], the CC50 at 48 h worked out at 76 µM. For `COc1ccc2nccc([C@@H](O)[C@@H]3C[C@@H]4CC[N@@]3C/C4=N/OC(C)C)c2c1` the same measures were 43 to 86 µM and over 100 µM. Take `COc1ccc2nccc([C@@H](O)[C@@H]3C[C@@H]4CC[N@@]3CC4=NOCc3ccccc3)c2c1`: the MIC with Streptococcus pneumoniae is 77 µM. Besides, the CC50 at 48 h in series [1] is over 100 µM. As to `C=C[C@H]1CN2CC[C@@H]1C[C@H](F)[C@H]2c1ccnc2ccc(OC)cc12`, the MIC against Streptococcus pneumoniae stood at 392 µM. Moreover, the CC50 at 48 h in series [1] is over 100 µM. In the series with Streptococcus pneumoniae, `COc1ccc2nccc([C@@H](O)[C@@H]3C[C@@H]4CC[N@@]3CC4=O)c2c1` came in with a minimum inhibitory concentration (MIC) of over 410 µM. The half-maximal cytotoxic concentration (CC50) at 48 h in series [1] is over 100 µM. In the same order, the values of `CCCCOc1ccc2nccc([C@@H](O)[C@@H]3C[C@@H]4CC[N@@]3C[C@@H]4CC)c2c1` are 22 µM and 41 µM.
